The values below come from patent publication US10016413B2, “Combination dopamine antagonist and opiate receptor antagonist treatment of addictive behavior” (University of Maryland, Baltimore, priority 2012, dated 2018).

The subject of data set [1] is cocaine addicted mice. Description: Naltrexone induced withdrawal (global withdrawal score). The class given is in vivo. As to conditions: mice treated with 10 mg/kg cocaine over 4 days. The procedure: Animals were treated with 10 mg/kg cocaine over 4 days. On the 5th day animals were injected with different dose of Naltrexone and 3 mg/kg l-THP. After injection animals were monitored for withdrawal behaviors for 20 minutes. Total counts for jumping, teeth chattering, paw tremors and grooming with assigned points were used to calculate the global withdrawal score. A one way ANVOA followed by Bonferroni post test comparisons was used to determine the effect naltrexone dose on withdrawal (***p<0.001 and *p<0.05 respectively) n=5 for each group. Global Scores were calculated.
This effect was attributed to cocaine's up regulation of endogenous opioids and the significant blockade of opioid receptor by naltrexone.

Data set [2] relates to locomotor activity. The data set can be described thus: Treatment effect on locomotor activity during extinction/treatment. The data set is classed as in vivo, mouse. As to conditions: over the treatment period; l-THP 3 mg/kg, naltrexone 0.1 mg/kg, alone or combined. The procedure: Over the course of extinction/treatment the animal's locomotor activity was recorded. The locomotion scores graphed represent the treatment locomotion with the baseline locomotion score subtracted.

The subject of data set [3] is cocaine induced reinstatement of CPP. Description: Cocaine induced reinstatement of CPP (mouse model of CPP). The class given is in vivo. The note with it: conditioned with 10 mg/kg cocaine, reinstated with 5 mg/kg cocaine, l-THP 3 mg/kg, naltrexone 0.1 mg/kg, alone or combined. The procedure: Animals were conditioned using 10 mg/kg cocaine for 4 days, and reinstated using 5 mg/kg cocaine. Reinstatement was carried out 48 hours after CPP was extinct. The CPP score is calculated as a change in baseline from the cocaine conditioned chamber. A two way ANOVA followed by Bonferroni post test comparisons was used for analysis of the effect of treatment on cocaine reinstatement.
Fixed dose l-THP/LDN (3 mg/kg/0.1 mg/kg) were tested in mouse model of CPP.

The test system of data set [4] is cocaine users. Description: Safety of l-THP in cocaine users: PD (blood pressure, heart rate). The data set is classed as in vivo, human. The note with it: for BP (Change from baseline %), first value of the pair / BP (Change from baseline %), second value of the pair / HR (Change from baseline %): n = 3. From the text:
(§1) Data on safety of l-THP in six subjects of cocaine users was generated (Table 1). The major PD/PK parameters of the drug-drug interaction between l-THP and cocaine in cocaine users were compared between active drug and placebo groups. […] Since l-THP will be 10 fold more than LDN in the combination, the safety of l-THP is the major safety concern in the combination for human drug addicts.

The nature of data set [5]: PK of the drug-drug interaction between l-THP and cocaine in cocaine users. The data set is classed as in vivo, human. As to conditions: cocaine users.
Text: as §1

The mark [6] stands for this setting: cocaine users, first column group headed Post cocaine 0 min.
The mark [7] stands for this setting: cocaine users, second column group headed Post cocaine 0 min.

“Also recorded” adds a separate entry of the source.

Regarding `O=C1CC[C@@]2(O)[C@H]3Cc4ccc(O)c5c4[C@@]2(CCN3CC2CC2)[C@H]1O5` [naltrexone], the “withdrawal, lower doses of naltrexone” value in data set [1] (naltrexone 1 mg/kg, 0.3 mg/kg and 0.1 mg/kg co-administered with l-THP (3 mg/kg)) is “did not produce withdrawal”. The “withdrawal symptoms, high dose naltrexone” value in data set [1] (naltrexone 30 mg/kg or 15 mg/kg co-administered with l-THP (3 mg/kg)) is “withdrawal symptoms occurred”. In addition, in data set [2], the “effect on locomotor activity (locomotion)” value is “did not display significant effect”. In addition, the “effect of treatment on cocaine reinstatement of CPP” value in data set [3] is recorded as “did not have significant effect”.

On to `COc1cc2c(cc1OC)[C@@H]1Cc3ccc(OC)c(OC)c3CN1CC2` [l-THP, levo-tetrahydropalmatine], for which the “effect on locomotor activity (locomotion)” value in data set [2] is “significant effect on locomotion during week 3 and week 4; also recorded: reduced locomotor activity significantly”. Moreover, in data set [3], the “effect of treatment on cocaine reinstatement of CPP” value is recorded as “significant attenuation”. For the same compound, the “peak changes in heart rate (HR) and blood pressure (BP)” value in data set [4] (cocaine users) is “within acceptable margin”. For the same compound, in data set [4] (setting [6]), the “BP (Change from baseline %), first value of the pair” value came out at 8 ± 9.3%; the “BP (Change from baseline %), second value of the pair” value turned out to be 10 ± 13%; the “HR (Change from baseline %)” value was 23.6 ± 27.1%. In addition, in data set [4] (setting [7]), the “BP (Change from baseline %), first value of the pair” value is given as 5 ± 3%; the “BP (Change from baseline %), second value of the pair” value is recorded as 5 ± 2%; the “HR (Change from baseline %)” value is listed as 8.5 ± 8.1%. For the same compound, the “safety and tolerability in cocaine users” value in data set [4] (six subjects of cocaine users, active drug vs placebo) is “safe and well tolerated”. The “effect of l-THP pretreatment on the Cmax or AUC0-inf of cocaine” value in data set [5] (vs placebo pretreated) is recorded as “does not increase”. Also, the AUC(0-inf) – broadly, the area under the concentration-time curve extrapolated to infinity – in data set [5] (human, in vivo, n = 2, mean only, analyte l-THP, read-out: I-THP AUC 0-inf) stood at 393 ng·h/mL. In data set [5] (human, in vivo, n = 2, mean only, analyte l-THP, read-out: I-THP Cmax), the Cmax – broadly, the maximum level reached in the sampled fluid or tissue – amounted to 38 ng/mL.
